From US20120324604A1, “PESTICIDAL MIXTURES CONTAINING ISOXAZOLINE DERIVATIVES AND A FUNGICIDE” (priority 2010, published 2012)

How the values were obtained:
Type in all cases: cell-based
Gaeumannomyces graminis = Gaeumannomyces graminis growth inhibition, microtiter plate, photometric
Protocol: Mycelial fragments of the fungus from cryogenic storage were directly mixed into nutrient broth (potato dextrose broth). After placing a (DMSO) solution of the test compounds into a microliter plate (96-well format) the nutrient broth containing the fungal spores was added.

[1] = test system: Mycosphaerella arachidis (syn. Cercospora arachidicola); assay: Mycosphaerella arachidis (Brown Leaf Spot of Groundnut) growth inhibition, microtiter plate, photometric; settings: alone
Protocol: Mycosphaerella arachidis (syn. Cercospora arachidicola), Brown Leaf Spot of Groundnut (Peanut):
(§1) Conidia of the fungus from cryogenic storage were directly mixed into nutrient broth (potato dextrose broth). After placing a (DMSO) solution of the test compounds into a microtiter plate (96-well format) the nutrient broth containing the fungal spores was added.

[2] = test system: Glomerella lagenarium (syn. Colletotrichum lagenarium); assay: Glomerella lagenarium (Anthracnose of Cucurbits) growth inhibition, microtiter plate, photometric; settings: alone
Protocol: Glomerella lagenarium (syn. Colletotrichum lagenarium), Anthracnose of Cucurbits:
as §1

Fusarium culmorum = Fusarium culmorum (Root Rot) growth inhibition, microtiter plate, photometric
Protocol: Fusarium culmorum (Root Rot):
as §1

Septoria tritici = Septoria tritici (Leaf Blotch) growth inhibition, microtiter plate, photometric; settings: for AVERAGE DEAD IN % A5: A5 alone; for AVERAGE DEAD IN %: alone; for AVERAGE DEAD IN % A6: A6 alone
Protocol: Septoria tritici (Leaf Blotch):
as §1

Pythium ultimum = Pythium ultimum (Damping Off) growth inhibition, microtiter plate, photometric
Protocol: Pythium ultimum (Damping Off):
Mycelial fragments of the fungus, prepared from a fresh liquid culture, were directly mixed into nutrient broth (potato dextrose broth). After placing a (DMSO) solution of the test compounds into a microtiter plate (96-well format) the nutrient broth containing the fungal spores was added.

Rhizoctonia solani = Rhizoctonia solani (Foot Rot, Damping-Off) growth inhibition, microtiter plate, photometric
Protocol: Rhizoctonia solani (Foot Rot, Damping-Off):
Mycelial fragments of the fungus from cryogenic storage were directly mixed into nutrient broth (potato dextrose broth). After placing a (DMSO) solution of the test compounds into a microtiter plate (96-well format) the nutrient broth containing the fungal spores was added.

[3] = single compound at 0.0390625 ppm AI
[4] = single compound at 0.078125 ppm AI
[5] = single compound at 0.15625 ppm AI
[6] = single compound at 0.3125 ppm AI
[7] = single compound at 0.625 ppm AI
[8] = single compound, 2.5 PPM AI, 48 hrs, 24° C.
[9] = single compound, 5 PPM AI, 48 hrs, 24° C.
[10] = single compound, 10 PPM AI, 48 hrs, 24° C.
[11] = single compound, 20 PPM AI, 48 hrs, 24° C.
[12] = applied alone, 0.0390625 ppm AI

Cc1cc(C2=NOC(c3cc(Cl)cc(Cl)c3)(C(F)(F)F)C2)ccc1C(=O)NC1CSC1 (racemic) [A5]
0%: AVERAGE DEAD IN % (Gaeumannomyces graminis; [3]) | AVERAGE DEAD IN % (Gaeumannomyces graminis; [4]) | AVERAGE DEAD IN % (Gaeumannomyces graminis; [5]) | AVERAGE DEAD IN % (Gaeumannomyces graminis; [6]) | AVERAGE DEAD IN % (Gaeumannomyces graminis; [7]) | AVERAGE DEAD IN % (Gaeumannomyces graminis; single compound at 1.25 ppm AI) | AVERAGE DEAD IN % (Gaeumannomyces graminis; single compound at 2.5 ppm AI) | AVERAGE DEAD IN % (Gaeumannomyces graminis; single compound at 5 ppm AI) | AVERAGE DEAD IN % (Gaeumannomyces graminis; single compound at 10 ppm AI) | AVERAGE DEAD IN % (Gaeumannomyces graminis; single compound at 20 ppm AI) | AVERAGE DEAD IN % ([1]; 0.078125 ppm AI) | AVERAGE DEAD IN % ([1]; 0.15625 ppm AI) | AVERAGE DEAD IN % ([1]; 0.3125 ppm AI) | AVERAGE DEAD IN % ([1]; 0.625 ppm AI) | AVERAGE DEAD IN % ([1]; 1.25 ppm AI) | AVERAGE DEAD IN % ([1]; 2.5 ppm AI) | AVERAGE DEAD IN % ([1]; 5 ppm AI) | AVERAGE DEAD IN % ([1]; 10 ppm AI) | AVERAGE DEAD IN % ([1]; 20 ppm AI) | AVERAGE DEAD IN % ([1]; 0.0390625 PPM AI) | AVERAGE DEAD IN % ([1]; 0.078125 PPM AI) | AVERAGE DEAD IN % ([1]; 0.15625 PPM AI) | AVERAGE DEAD IN % ([1]; 0.3125 PPM AI) | AVERAGE DEAD IN % ([1]; 0.625 PPM AI) | AVERAGE DEAD IN % ([1]; 1.25 PPM AI) | AVERAGE DEAD IN % ([1]; 2.5 PPM AI) | AVERAGE DEAD IN % ([1]; 5 PPM AI) | AVERAGE DEAD IN % ([1]; 10 PPM AI) | AVERAGE DEAD IN % ([2]; 0.0390625 ppm AI) | AVERAGE DEAD IN % ([2]; 0.078125 ppm AI) | AVERAGE DEAD IN % ([2]; 0.15625 ppm AI) | AVERAGE DEAD IN % ([2]; 0.3125 ppm AI) | AVERAGE DEAD IN % ([2]; 0.625 ppm AI) | AVERAGE DEAD IN % ([2]; 1.25 ppm AI) | AVERAGE DEAD IN % ([2]; 2.5 ppm AI) | AVERAGE DEAD IN % ([2]; 5 ppm AI) | AVERAGE DEAD IN % ([2]; 10 ppm AI) | AVERAGE DEAD IN % ([2]; 20 ppm AI) | AVERAGE DEAD IN % (Fusarium culmorum; alone, 1.25 PPM AI) | AVERAGE DEAD IN % (Fusarium culmorum; alone, 2.5 PPM AI) | AVERAGE DEAD IN % (Fusarium culmorum; alone, 5 PPM AI) | AVERAGE DEAD IN % (Fusarium culmorum; alone, 10 PPM AI) | AVERAGE DEAD IN % (Fusarium culmorum; alone, 20 PPM AI) | AVERAGE DEAD IN % (Fusarium culmorum; single compound, 0.625 PPM AI, 48 hrs, 24° C.) | AVERAGE DEAD IN % (Fusarium culmorum; single compound, 1.25 PPM AI, 48 hrs, 24° C.) | AVERAGE DEAD IN % (Fusarium culmorum; [8]) | AVERAGE DEAD IN % (Fusarium culmorum; [9]) | AVERAGE DEAD IN % (Fusarium culmorum; [10]) | AVERAGE DEAD IN % (Fusarium culmorum; [11]) | AVERAGE DEAD IN % A5 (Septoria tritici; 0.0390625 ppm AI) | AVERAGE DEAD IN % A5 (Septoria tritici; 0.078125 ppm AI) | AVERAGE DEAD IN % A5 (Septoria tritici; 0.15625 ppm AI) | AVERAGE DEAD IN % A5 (Septoria tritici; 0.3125 ppm AI) | AVERAGE DEAD IN % A5 (Septoria tritici; 0.625 ppm AI) | AVERAGE DEAD IN % A5 (Septoria tritici; 1.25 ppm AI) | AVERAGE DEAD IN % A5 (Septoria tritici; 2.5 ppm AI) | AVERAGE DEAD IN % A5 (Septoria tritici; 5 ppm AI) | AVERAGE DEAD IN % A5 (Septoria tritici; 10 ppm AI) | AVERAGE DEAD IN % (Pythium ultimum; [3]) | AVERAGE DEAD IN % (Pythium ultimum; [4]) | AVERAGE DEAD IN % (Pythium ultimum; [5]) | AVERAGE DEAD IN % (Pythium ultimum; [6]) | AVERAGE DEAD IN % (Pythium ultimum; [7]) | AVERAGE DEAD IN % (Pythium ultimum; single compound at 1.25 ppm AI) | AVERAGE DEAD IN % (Pythium ultimum; single compound at 2.5 ppm AI) | AVERAGE DEAD IN % (Pythium ultimum; single compound at 5 ppm AI) | AVERAGE DEAD IN % (Pythium ultimum; single compound at 10 ppm AI) | AVERAGE DEAD IN % (Pythium ultimum; single compound at 20 ppm AI) | AVERAGE DEAD IN % (Rhizoctonia solani; [12]) | AVERAGE DEAD IN % (Rhizoctonia solani; applied alone, 0.078125 ppm AI) | AVERAGE DEAD IN % (Rhizoctonia solani; applied alone, 0.15625 ppm AI) | AVERAGE DEAD IN % (Rhizoctonia solani; applied alone, 0.3125 ppm AI) | AVERAGE DEAD IN % (Rhizoctonia solani; applied alone, 0.625 ppm AI) | AVERAGE DEAD IN % (Rhizoctonia solani; applied alone, 1.25 ppm AI) | AVERAGE DEAD IN % (Rhizoctonia solani; applied alone, 2.5 ppm AI) | AVERAGE DEAD IN % (Rhizoctonia solani; applied alone, 5 ppm AI) | AVERAGE DEAD IN % (Rhizoctonia solani; applied alone, 10 ppm AI) | AVERAGE DEAD IN % (Rhizoctonia solani; applied alone, 20 ppm AI) | AVERAGE DEAD IN % (Rhizoctonia solani; single compound at 2.5 ppm AI)

Cc1cc(C2=NOC(c3cc(Cl)cc(Cl)c3)(C(F)(F)F)C2)ccc1C(=O)NC1C[S+]([O-])C1 (stereo not shown) [A6]
0%: AVERAGE DEAD IN % (Gaeumannomyces graminis; [3]) | AVERAGE DEAD IN % (Gaeumannomyces graminis; [4]) | AVERAGE DEAD IN % (Gaeumannomyces graminis; [5]) | AVERAGE DEAD IN % (Gaeumannomyces graminis; [6]) | AVERAGE DEAD IN % (Gaeumannomyces graminis; [7]) | AVERAGE DEAD IN % (Gaeumannomyces graminis; single compound at 1.25 ppm AI) | AVERAGE DEAD IN % (Gaeumannomyces graminis; single compound at 2.5 ppm AI) | AVERAGE DEAD IN % (Gaeumannomyces graminis; single compound at 5 ppm AI) | AVERAGE DEAD IN % (Gaeumannomyces graminis; single compound at 10 ppm AI) | AVERAGE DEAD IN % (Gaeumannomyces graminis; single compound at 20 ppm AI) | AVERAGE DEAD IN % ([1]; 0.0390625 PPM AI) | AVERAGE DEAD IN % ([1]; 0.078125 PPM AI) | AVERAGE DEAD IN % ([1]; 0.15625 PPM AI) | AVERAGE DEAD IN % ([1]; 0.3125 PPM AI) | AVERAGE DEAD IN % ([1]; 0.625 PPM AI) | AVERAGE DEAD IN % ([1]; 1.25 PPM AI) | AVERAGE DEAD IN % ([1]; 2.5 PPM AI) | AVERAGE DEAD IN % ([1]; 5 PPM AI) | AVERAGE DEAD IN % ([1]; 10 PPM AI) | AVERAGE DEAD IN % ([1]; 20 PPM AI) | AVERAGE DEAD IN % ([2]; 0.078125 ppm AI) | AVERAGE DEAD IN % ([2]; 0.15625 ppm AI) | AVERAGE DEAD IN % ([2]; 2.5 ppm AI) | AVERAGE DEAD IN % ([2]; 5 ppm AI) | AVERAGE DEAD IN % ([2]; 10 ppm AI) | AVERAGE DEAD IN % ([2]; 20 ppm AI) | AVERAGE DEAD IN % (Fusarium culmorum; [8]) | AVERAGE DEAD IN % (Fusarium culmorum; [9]) | AVERAGE DEAD IN % (Fusarium culmorum; [10]) | AVERAGE DEAD IN % (Fusarium culmorum; [11]) | AVERAGE DEAD IN % (Septoria tritici; 0.3125 ppm AI) | AVERAGE DEAD IN % (Septoria tritici; 0.625 ppm AI) | AVERAGE DEAD IN % (Septoria tritici; 1.25 ppm AI) | AVERAGE DEAD IN % (Septoria tritici; 2.5 ppm AI) | AVERAGE DEAD IN % (Septoria tritici; 5 ppm AI) | AVERAGE DEAD IN % (Septoria tritici; 10 ppm AI) | AVERAGE DEAD IN % (Septoria tritici; 20 ppm AI) | AVERAGE DEAD IN % A6 (Septoria tritici; 0.0390625 ppm AI) | AVERAGE DEAD IN % A6 (Septoria tritici; 0.078125 ppm AI) | AVERAGE DEAD IN % A6 (Septoria tritici; 0.15625 ppm AI) | AVERAGE DEAD IN % A6 (Septoria tritici; 0.3125 ppm AI) | AVERAGE DEAD IN % A6 (Septoria tritici; 0.625 ppm AI) | AVERAGE DEAD IN % A6 (Septoria tritici; 1.25 ppm AI) | AVERAGE DEAD IN % A6 (Septoria tritici; 2.5 ppm AI) | AVERAGE DEAD IN % A6 (Septoria tritici; 5 ppm AI) | AVERAGE DEAD IN % A6 (Septoria tritici; 10 ppm AI) | AVERAGE DEAD IN % A6 (Septoria tritici; 20 ppm AI) | AVERAGE DEAD IN % (Pythium ultimum; [4]) | AVERAGE DEAD IN % (Pythium ultimum; [5]) | AVERAGE DEAD IN % (Pythium ultimum; [6]) | AVERAGE DEAD IN % (Pythium ultimum; [7]) | AVERAGE DEAD IN % (Pythium ultimum; single compound at 1.25 ppm AI) | AVERAGE DEAD IN % (Pythium ultimum; single compound at 2.5 ppm AI) | AVERAGE DEAD IN % (Pythium ultimum; single compound at 5 ppm AI) | AVERAGE DEAD IN % (Pythium ultimum; single compound at 10 ppm AI) | AVERAGE DEAD IN % (Pythium ultimum; single compound at 20 ppm AI) | AVERAGE DEAD IN % (Rhizoctonia solani; [12]) | AVERAGE DEAD IN % (Rhizoctonia solani; applied alone, 0.078125 ppm AI) | AVERAGE DEAD IN % (Rhizoctonia solani; applied alone, 0.15625 ppm AI) | AVERAGE DEAD IN % (Rhizoctonia solani; applied alone, 0.3125 ppm AI) | AVERAGE DEAD IN % (Rhizoctonia solani; applied alone, 0.625 ppm AI) | AVERAGE DEAD IN % (Rhizoctonia solani; applied alone, 1.25 ppm AI) | AVERAGE DEAD IN % (Rhizoctonia solani; applied alone, 2.5 ppm AI) | AVERAGE DEAD IN % (Rhizoctonia solani; applied alone, 5 ppm AI) | AVERAGE DEAD IN % (Rhizoctonia solani; applied alone, 10 ppm AI) | AVERAGE DEAD IN % (Rhizoctonia solani; applied alone, 20 ppm AI)
